The experiment concerns the target DDR1 (Homo sapiens (Human), UniProt Q08345). Description: Measurement of DDR1 enzyme inhibitory activity (phosphorylation of biotinylated peptide, time-resolved fluorescence). The note with it: read-out: DDR1 enzyme inhibition assay IC50. It is filed as biochemical. How it is done: 1. Measurement of DDR1 Enzyme Inhibitory Activity
The DDR1 enzyme inhibitory activity was determined with human DDR1 enzyme prepared using the baculovirus expression system, based on the inhibitory activity of phosphorylation of a biotinylated peptide ([…]) by the enzyme. The phosphorylated biotinylated peptide was detected using time-resolved fluorescence, with an anti-phosphorylated tyrosine antibody conjugated with europium cryptate and streptavidin conjugated with XL665 which is a derivative of allophycocyanin.

[1] abbreviates: human DDR1 enzyme, biotinylated peptide phosphorylation.

Each structure is given as a SMILES string. Like-named read-outs stand apart in the source and are kept apart here.

For orientation: IC50 means the concentration that inhibits the measured activity by half.

DDR1, sequence (Q08345 19-913): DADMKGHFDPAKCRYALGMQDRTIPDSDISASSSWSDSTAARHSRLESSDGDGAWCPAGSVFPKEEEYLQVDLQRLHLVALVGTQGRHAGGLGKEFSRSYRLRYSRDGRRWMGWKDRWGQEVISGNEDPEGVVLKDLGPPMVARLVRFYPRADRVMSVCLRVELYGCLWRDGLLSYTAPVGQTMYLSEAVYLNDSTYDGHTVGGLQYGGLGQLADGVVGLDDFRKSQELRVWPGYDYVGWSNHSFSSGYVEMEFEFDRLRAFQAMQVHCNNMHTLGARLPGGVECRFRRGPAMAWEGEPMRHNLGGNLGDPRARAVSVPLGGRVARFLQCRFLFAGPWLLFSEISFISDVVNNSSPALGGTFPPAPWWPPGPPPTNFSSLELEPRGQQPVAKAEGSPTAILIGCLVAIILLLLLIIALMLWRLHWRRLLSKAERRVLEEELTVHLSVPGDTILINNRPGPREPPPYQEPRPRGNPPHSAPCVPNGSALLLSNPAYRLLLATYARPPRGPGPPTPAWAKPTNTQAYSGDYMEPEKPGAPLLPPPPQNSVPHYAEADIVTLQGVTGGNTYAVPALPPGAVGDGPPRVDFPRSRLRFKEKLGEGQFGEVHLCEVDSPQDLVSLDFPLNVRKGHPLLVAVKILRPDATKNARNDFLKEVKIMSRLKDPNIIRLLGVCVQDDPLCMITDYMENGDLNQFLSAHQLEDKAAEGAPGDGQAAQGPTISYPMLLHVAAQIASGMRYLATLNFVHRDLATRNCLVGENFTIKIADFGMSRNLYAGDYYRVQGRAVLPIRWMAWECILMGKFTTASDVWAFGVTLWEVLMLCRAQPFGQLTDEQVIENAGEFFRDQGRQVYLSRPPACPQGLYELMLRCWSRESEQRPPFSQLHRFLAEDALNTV

`CCSc1ccc(Cl)cc1Nn1cnc2c(Cl)cc(C(F)(F)F)cc2c1=O` [Compound A-11, 8-Chloro-3-(5-chloro-2-ethylsulfanylanilino)-6-(trifluoromethyl)quinazolin-4-one]: the IC50 under setting [1] stood at 400 nM. Turning to `CCSc1ccc(OC)cc1Nn1cnc2ccc(OC(F)(F)F)cc2c1=O` [Compound C-27, 3-(2-Ethylsulfanyl-5-methoxyanilino)-6-(trifluoromethoxy)quinazolin-4-one], the IC50 under setting [1] turned out to be 200 nM. Still for that read-out and setting: next, `CCSc1ncc(Cl)cc1Nn1cnc2ccc(C(F)(F)F)cc2c1=O` [Compound D-2, 3-[(5-Chloro-2-ethylsulfanylpyridin-3-yl)amino]-6-(trifluoromethyl)quinazolin-4-one]: 410 nM. Consider `CCS(=O)(=O)c1ccc(Cl)cc1Cn1cnc2c(Br)c(CN3CCN(C(C)C)CC3)c(Br)cc2c1=O` [Compound L-12, 6,8-Dibromo-3-[(5-chloro-2-ethylsulfonylphenyl)methyl]-7-[(4-propan-2-ylpiperazin-1-yl)methyl]quinazolin-4-one], for which the IC50 worked out at 200 nM. Regarding `CCc1ccc2ncn(Nc3cc(Cl)ccc3S(=O)(=O)CC)c(=O)c2c1` [Compound A-53, 3-(5-Chloro-2-ethylsulfonylanilino)-6-ethylquinazolin-4-one], under setting [1], the IC50 was 180 nM. In the case of `CCS(=O)(=O)c1ccc(Cl)cc1Nn1cnc2cc3c(cc2c1=O)OCCO3` [Compound A-43, 3-(5-Chloro-2-ethylsulfonylanilino)-7,8-dihydro-[1,4]dioxino[2,3-g]quinazolin-4-one], the IC50 under setting [1] is 600 nM. The same measure, in the same setting: in the case of `CCSc1ccc(F)cc1Nn1cnc2c(Br)cc(OC(F)(F)F)cc2c1=O` [Compound C-19, 8-Bromo-3-(2-ethylsulfanyl-5-fluoroanilino)-6-(trifluoromethoxy)quinazolin-4-one] it was 340 nM. Still for that read-out and setting: in the case of `CCSc1ccc(Cl)cc1Nn1cnc2cc(C)c(Br)cc2c1=O` [Compound A-7, 6-Bromo-3-(5-chloro-2-ethylsulfanylanilino)-7-methylquinazolin-4-one] it was 800 nM; in that of `Cc1cc(Br)c2ncn(Nc3cc(Cl)ccc3S(=O)(=O)c3ccccc3)c(=O)c2c1` [Compound B-14, 3-[2-(Benzenesulfonyl)-5-chloroanilino]-8-bromo-6-methylquinazolin-4-one], 290 nM. Regarding `CCSc1ccc(F)cc1Nn1cnc2c(Br)cc(C(F)(F)F)cc2c1=O` [Compound C-21], under setting [1], the IC50 was 600 nM. In the case of `CCOc1ccc2ncn(Nc3cc(Cl)ccc3S(=O)(=O)CC)c(=O)c2c1` [Compound A-37, 3-(5-Chloro-2-ethylsulfonylanilino)-6-ethoxyquinazolin-4-one], the IC50 under setting [1] is 430 nM.

On to `CCSc1ccc(Cl)cc1Nn1cnc2ccc(C)cc2c1=O` [Compound A-50, 3-(5-Chloro-2-ethylsulfanylanilino)-6-methylquinazolin-4-one], for which, under setting [1], the IC50 was determined as 57 nM. Same read-out and setting: next, `CCSc1ccc(Cl)cc1Cn1cnc2cc(C)c(I)cc2c1=O` [Compound E-7, 3-[(5-Chloro-2-ethylsulfanylphenyl)methyl]-6-iodo-7-methylquinazolin-4-one]: 790 nM; `CCS(=O)(=O)c1ccc(Cl)cc1Cn1cnc2c(Cl)cc(OC(F)(F)F)cc2c1=O` [Compound E-14, 8-Chloro-3-[(5-chloro-2-ethylsulfonylphenyl)methyl]-6-(trifluoromethoxy)quinazolin-4-one]: 120 nM; `CCSc1ccc(C(F)(F)F)cc1Nn1cnc2c(Br)cc(C(F)(F)F)cc2c1=O` [Compound C-34, 8-Bromo-3-[2-ethylsulfanyl-5-(trifluoromethyl)anilino]-6-(trifluoromethyl)quinazolin-4-one]: 170 nM. Same read-out and setting: next, `CCS(=O)(=O)c1ccc(Cl)cc1Cn1cnc2c(Br)cc(C)cc2c1=O` [Compound E-2, 8-Bromo-3-[(5-chloro-2-ethylsulfonylphenyl)methyl]-6-methylquinazolin-4-one]: 600 nM; `CCS(=O)(=O)c1ccc(N)cc1Cn1ccc2ccc(C(F)(F)F)cc2c1=O` [Compound F-7, 2-[(5-Amino-2-ethylsulfonylphenyl)methyl]-7-(trifluoromethyl)isoquinolin-1-one]: 2080 nM. Turning to `N#Cc1ccc(S(=O)(=O)c2ccccc2)c(Nn2cnc3ccc(C(F)(F)F)cc3c2=O)c1` [Compound B-16, 4-(Benzenesulfonyl)-3-[[4-oxo-6-(trifluoromethyl)quinazolin-3-yl]amino]benzonitrile], the IC50 under setting [1] worked out at 1470 nM. On to `CCSc1ccc(C#N)cc1Nn1cnc2ccc(OC(F)(F)F)cc2c1=O` [Compound C-15, 4-Ethylsulfanyl-3-[[4-oxo-6-(trifluoromethoxy)quinazolin-3-yl]amino]benzonitrile], for which the IC50 under setting [1] was found to be 210 nM. On the same count and under the same terms, next, `CCSc1cnc(Cl)cc1Nn1cnc2ccc(C(F)(F)F)cc2c1=O` [Compound D-6, 3-[(2-Chloro-5-ethylsulfanylpyridin-4-yl)amino]-6-(trifluoromethyl)quinazolin-4-one]: 93 nM. As to `CCSc1ccc(Cl)cc1Nn1cnc2cc3c(cc2c1=O)OCO3` [Compound A-40, 7-(5-Chloro-2-ethylsulfanylanilino)-[1,3]dioxolo[4,5-g]quinazolin-8-one], under setting [1], the IC50 was found to be 350 nM. Turning to `CCS(=O)(=O)c1ccc(Cl)cc1Cn1cnc2c(Br)cc(OC(F)(F)F)cc2c1=O` [Compound E-12, 8-Bromo-3-[(5-chloro-2-ethylsulfonylphenyl)methyl]-6-(trifluoromethoxy)quinazolin-4-one], under setting [1], the IC50 is 390 nM.

`CCSc1ccc(Cl)cc1Nn1cnc2c(Br)cc(C(F)(F)F)cc2c1=O` [Compound A-32, 8-Bromo-3-(5-chloro-2-ethylsulfanylanilino)-6-(trifluoromethyl)quinazolin-4-one]: the IC50 under setting [1] is 290 nM. With `CCS(=O)(=O)c1ccc(Cl)cc1Nn1cnc2ccc(OC)cc2c1=O` [Compound A-35, 3-(5-Chloro-2-ethylsulfonylanilino)-6-methoxyquinazolin-4-one], under setting [1], the IC50 turned out to be 95 nM. In the case of `CCSc1ccc(Cl)cc1Cn1cnc2c(Br)cc(C(F)(F)F)cc2c1=O` [Compound E-9, 8-Bromo-3-[(5-chloro-2-ethylsulfanylphenyl)methyl]-6-(trifluoromethyl)quinazolin-4-one], the IC50 under setting [1] amounted to 590 nM. The same measure, in the same setting: next, `CCSc1ccc(C#N)cc1Nn1cnc2ncc(Br)cc2c1=O` [Compound C-7, 3-[(6-Bromo-4-oxopyrido[2,3-d]pyrimidin-3-yl)amino]-4-ethylsulfanylbenzonitrile]: 750 nM. For `CCCc1ccc(Cl)cc1Nn1cnc2ccc(OC(F)(F)F)cc2c1=O` [Compound B-17, 3-(5-Chloro-2-propylanilino)-6-(trifluoromethoxy)quinazolin-4-one], the IC50 under setting [1] is 410 nM. On the same count and under the same terms, in the case of `Cc1cc(Br)c2ncn(Nc3cc(Cl)ccc3Sc3ccccc3)c(=O)c2c1` [Compound B-12, 8-Bromo-3-(5-chloro-2-phenylsulfanylanilino)-6-methylquinazolin-4-one] it was 150 nM; in that of `CCSc1ncc(Cl)cc1Nn1cnc2c(Br)cc(C)cc2c1=O` [Compound D-4, 8-Bromo-3-[(5-chloro-2-ethylsulfanylpyridin-3-yl)amino]-6-methylquinazolin-4-one], 580 nM; in that of `CCS(=O)(=O)c1ncc(Cl)cc1Nn1cnc2ccc(C(F)(F)F)cc2c1=O` [Compound D-3, 3-[(5-Chloro-2-ethylsulfonylpyridin-3-yl)amino]-6-(trifluoromethyl)quinazolin-4-one], 430 nM.

These data come from patent US10005739B2, “Quinazolinone and isoquinolinone derivative” (CHUGAI SEIYAKU KABUSHIKI KAISHA, priority 2013, dated 2018).
